Results as given in patent US10131652B2, “Pyrimidinyloxy benzene derivatives as herbicides” (E. I. DU PONT DE NEMOURS AND COMPANY, priority 2014, dated 2018).

Columns and labels:
Assay type in all cases: in vivo
[1] = tested on: blackgrass (Alopecurus myosuroides); test: Test B postemergence plant response
How it was run: (§1)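 Visual injury ratings, 0 = no effect to 100 = complete control, versus untreated controls approximately 10 days after postemergence spraying in greenhouse. Plants were at one- to two-leaf stage, 2 to 10 cm tall, in loam soil/sand blend; a dash denotes no result.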

[2] = tested on: galium (catchweed bedstraw, Galium aparine); test: Test B postemergence plant response
How it was run: as §1

[3] = tested on: ducksalad (Heteranthera limosa); test: Test C flooded paddy test plant response; settings: Flood, 250 g ai/ha; scale of 0 to 100 where 0 is no effect and 100 is complete control; 13 to 15 days
How it was run: (§2)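 Scale 0 (no effect) to 100 (complete control), assigned visually versus controls after 13–15 d greenhouse. Application: directly to paddy water, 3 cm flood depth kept constant, 2-leaf stage.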

[4] = tested on: small-flower umbrella sedge (Cyperus difformis); test: Test C flooded paddy test plant response; settings: Flood, 250 g ai/ha; scale of 0 to 100 where 0 is no effect and 100 is complete control; 13 to 15 days
How it was run: as §2

[5] = tested on: barnyardgrass (Echinochloa crus-galli); test: Test C flooded paddy test plant response; settings: Flood, 250 g ai/ha; scale of 0 to 100 where 0 is no effect and 100 is complete control; 13 to 15 days
How it was run: as §2

rice (Oryza sativa) = test: Test C flooded paddy test plant response; settings: Flood, 250 g ai/ha; scale of 0 to 100 where 0 is no effect and 100 is complete control; 13 to 15 days
How it was run: as §2

[6] = tested on: wheat (Triticum aestivum); test: Test B pre-/postemergence plant response
How it was run: (§3)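 Visual injury scores on a 0–100 scale (100 = complete control) relative to untreated plants, taken about 10 days post-treatment in greenhouse. Treatments were a directed preemergence soil spray and a postemergence spray at one- to two-leaf stage, using surfactant-containing solvent formulation.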

[7] = tested on: pigweed (Amaranthus retroflexus); test: Test B pre-/postemergence plant response
How it was run: as §3

[8] = tested on: barnyardgrass (Echinochloa crus-galli); test: Test B pre-/postemergence plant response
How it was run: as §3

[9] = tested on: ragweed (common ragweed, Ambrosia elatior); test: Test B pre-/postemergence plant response
How it was run: as §3

corn (Zea mays) = test: Test B pre-/postemergence plant response
How it was run: as §3

kochia (Kochia scoparia) = test: Test B pre-/postemergence plant response
How it was run: as §3

[10] = tested on: giant foxtail (Setaria faberii); test: Test B pre-/postemergence plant response
How it was run: as §3

[11] = tested on: Italian ryegrass (Lolium multiflorum); test: Test B pre-/postemergence plant response
How it was run: as §3

[12] = 125 g ai/ha, postemergence, 0 to 100 scale, 0 no effect, 100 complete control
[13] = Postemergence, 500 g ai/ha, 0 to 100 scale (0 no effect, 100 complete control)
[14] = Preemergence, 125 g ai/ha, 0 to 100 scale (0 no effect, 100 complete control)
[15] = Preemergence, 500 g ai/ha, 0 to 100 scale where 0 is no effect and 100 is complete control
[16] = Postemergence, 31 g ai/ha, 0 to 100 scale (0 no effect, 100 complete control)
[17] = 31 g ai/ha, Preemergence, 0 to 100 scale where 0 is no effect and 100 is complete control

Row | Compound | Plant response rating, Blackgrass [1, 12] | Plant response rating, Galium [2, 12] | Ducksalad plant response rating [3] | Sedge, Umbrella plant response rating [4] | Barnyardgrass plant response rating [5] | Rice plant response rating (rice (Oryza sativa)) | Plant response rating, Wheat [6, 12] | Plant response rating, Pigweed [7, 12] | Pigweed plant response rating [7, 14] | Plant response rating, Barnyardgrass [8, 12] | Barnyardgrass plant response rating [8, 14] | Plant response rating, Ragweed [9, 12] | Ragweed plant response rating [9, 14] | Plant response rating, Corn (corn (Zea mays); [12]) | Plant response rating, Kochia (kochia (Kochia scoparia); [12]) | Kochia plant response rating (kochia (Kochia scoparia); [14]) | Plant response rating, Foxtail, Giant [10, 12] | Foxtail, Giant plant response rating [10, 14] | Plant response rating, Ryegrass, Italian [11, 12] | Ryegrass, Italian plant response rating [11, 14] | further results
1 | Cn1ccnc1-c1ccccc1Oc1ncc(Cl)cn1 [Compound 151] | 0 | 0 | 0 | 0 | 0 | 0 | 0 | 0 | 0 | 0 | 0 | 0 | 0 | 0 | 0 | 0 | 0 | 0 | 0 | 0 | Plant response rating, Blackgrass [1, 13]: 0; Plant response rating, Galium [2, 13]: 0; Plant response rating, Wheat [6, 13]: 0; Plant response rating, Pigweed [7, 13]: 0; Plant response rating, Pigweed [7, 15]: 0; Plant response rating, Barnyardgrass [8, 13]: 0; Plant response rating, Barnyardgrass [8, 15]: 0; Plant response rating, Ragweed [9, 13]: 0; Plant response rating, Ragweed [9, 15]: 0; Plant response rating, Corn (corn (Zea mays); [13]): 0; Plant response rating, Kochia (kochia (Kochia scoparia); [13]): 0; Plant response rating, Kochia (kochia (Kochia scoparia); [15]): 0; Plant response rating, Foxtail, Giant [10, 13]: 0; Plant response rating, Foxtail, Giant [10, 15]: 0; Plant response rating, Ryegrass, Italian [11, 13]: 0; Plant response rating, Ryegrass, Italian [11, 15]: 0
2 | Cn1ccnc1-c1ccccc1Oc1ncc(Br)cn1 [Compound 152] | 0 | 0 | 0 | 0 | 0 | 0 | 0 | 0 | 0 | 0 | 0 | 0 | 0 | 0 | 0 | 0 | 0 | 0 | 0 | 0 | Plant response rating, Blackgrass [1, 13]: 0; Plant response rating, Galium [2, 13]: 0; Plant response rating, Wheat [6, 13]: 0; Plant response rating, Pigweed [7, 13]: 0; Plant response rating, Pigweed [7, 15]: 0; Plant response rating, Barnyardgrass [8, 13]: 0; Plant response rating, Barnyardgrass [8, 15]: 0; Plant response rating, Ragweed [9, 13]: 0; Plant response rating, Ragweed [9, 15]: 0; Plant response rating, Corn (corn (Zea mays); [13]): 0; Plant response rating, Kochia (kochia (Kochia scoparia); [13]): 0; Plant response rating, Kochia (kochia (Kochia scoparia); [15]): 0; Plant response rating, Foxtail, Giant [10, 13]: 0; Plant response rating, Foxtail, Giant [10, 15]: 0; Plant response rating, Ryegrass, Italian [11, 13]: 0; Plant response rating, Ryegrass, Italian [11, 15]: 0
3 | Clc1cnc(Oc2ccccc2-c2ccno2)nc1 [Compound 154] | 0 | 0 | 0 | 0 | 0 | 0 | 0 | 0 | 0 | 0 | 0 | 0 | 0 | 0 | 0 | 0 | 0 | 0 | 0 | 0 | Plant response rating, Blackgrass [1, 16]: 0; Plant response rating, Galium [2, 16]: 0; Plant response rating, Wheat [6, 16]: 0; Plant response rating, Pigweed [7, 17]: 0; Plant response rating, Pigweed [7, 16]: 0; Plant response rating, Barnyardgrass [8, 17]: 0; Plant response rating, Barnyardgrass [8, 16]: 0; Plant response rating, Ragweed [9, 17]: 0; Plant response rating, Ragweed [9, 16]: 0; Plant response rating, Corn (corn (Zea mays); [16]): 0; Plant response rating, Kochia (kochia (Kochia scoparia); [17]): 0; Plant response rating, Kochia (kochia (Kochia scoparia); [16]): 0; Plant response rating, Foxtail, Giant [10, 17]: 0; Plant response rating, Foxtail, Giant [10, 16]: 0; Plant response rating, Ryegrass, Italian [11, 17]: 0; Plant response rating, Ryegrass, Italian [11, 16]: 0
4 | Brc1cnc(Oc2ccccc2-c2ccno2)nc1 [Compound 155] | 0 | 0 | 0 | 0 | 0 | 0 | 0 | 0 | 0 | 0 | 0 | 0 | 0 | 0 | 0 | 0 | 0 | 0 | 0 | 0 | Plant response rating, Blackgrass [1, 16]: 0; Plant response rating, Galium [2, 16]: 0; Plant response rating, Wheat [6, 16]: 0; Plant response rating, Pigweed [7, 17]: 0; Plant response rating, Pigweed [7, 16]: 0; Plant response rating, Barnyardgrass [8, 17]: 0; Plant response rating, Barnyardgrass [8, 16]: 0; Plant response rating, Ragweed [9, 17]: 0; Plant response rating, Ragweed [9, 16]: 0; Plant response rating, Corn (corn (Zea mays); [16]): 0; Plant response rating, Kochia (kochia (Kochia scoparia); [17]): 0; Plant response rating, Kochia (kochia (Kochia scoparia); [16]): 0; Plant response rating, Foxtail, Giant [10, 17]: 0; Plant response rating, Foxtail, Giant [10, 16]: 0; Plant response rating, Ryegrass, Italian [11, 17]: 0; Plant response rating, Ryegrass, Italian [11, 16]: 0
5 | FC(F)(F)c1ccnc(-c2c(Cl)cccc2Oc2ncc(Cl)cn2)c1 [Compound 159] | 0 | 70 | 0 | 0 | 0 | 0 | 20 | 90 | 40 | 0 | 0 | 0 | 0 | 20 | 20 | 0 | 0 | 20 | 0 | 0 | Plant response rating, Blackgrass [1, 13]: 30; Plant response rating, Galium [2, 13]: 100; Plant response rating, Wheat [6, 13]: 20; Plant response rating, Pigweed [7, 13]: 100; Plant response rating, Pigweed [7, 15]: 100; Plant response rating, Barnyardgrass [8, 13]: 20; Plant response rating, Barnyardgrass [8, 15]: 60; Plant response rating, Ragweed [9, 13]: 0; Plant response rating, Ragweed [9, 15]: 0; Plant response rating, Corn (corn (Zea mays); [13]): 30; Plant response rating, Kochia (kochia (Kochia scoparia); [13]): 80; Plant response rating, Kochia (kochia (Kochia scoparia); [15]): 30; Plant response rating, Foxtail, Giant [10, 13]: 70; Plant response rating, Foxtail, Giant [10, 15]: 90; Plant response rating, Ryegrass, Italian [11, 13]: 0; Plant response rating, Ryegrass, Italian [11, 15]: 0
